Like-named read-outs stand apart in the source and are kept apart here.

Five compounds from article PMC10175918 (Communications Biology, 2023) can be followed below.

What all share (experiment): TGFα-shedding assay-based GPCR screening with chimeric Gα subunit proteins
Common to all, as to type: cell-based

For assay [1], the target named is T1, 348 GPCRs (Homo sapiens, UniProt Q969V1).
T1 construct: expressed in transfected cells; host or cells: HEK293A
Particulars: 10µM, Favipiravir 100μM.

Assay [2] deals with T2, 348 GPCRs (Homo sapiens, UniProt Q8TDS5).
T2 construct: expressed in transfected cells; host or cells: HEK293A
T2 sequence (Q8TDS5 whole entry): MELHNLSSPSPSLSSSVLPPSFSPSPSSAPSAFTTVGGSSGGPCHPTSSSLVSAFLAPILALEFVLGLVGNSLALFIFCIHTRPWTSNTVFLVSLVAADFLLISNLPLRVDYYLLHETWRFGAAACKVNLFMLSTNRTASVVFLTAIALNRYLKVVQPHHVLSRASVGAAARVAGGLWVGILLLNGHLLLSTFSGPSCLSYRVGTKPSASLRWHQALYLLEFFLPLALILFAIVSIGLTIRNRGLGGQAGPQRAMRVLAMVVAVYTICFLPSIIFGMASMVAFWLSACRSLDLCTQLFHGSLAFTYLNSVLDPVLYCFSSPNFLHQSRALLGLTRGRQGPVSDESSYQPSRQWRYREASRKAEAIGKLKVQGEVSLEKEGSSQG
Particulars: 10µM, Favipiravir 100μM.

The target in assay [3] is T3, 348 GPCRs (Homo sapiens, UniProt P08913).
T3 construct: expressed in transfected cells; host or cells: HEK293A
T3 sequence (P08913 1-465): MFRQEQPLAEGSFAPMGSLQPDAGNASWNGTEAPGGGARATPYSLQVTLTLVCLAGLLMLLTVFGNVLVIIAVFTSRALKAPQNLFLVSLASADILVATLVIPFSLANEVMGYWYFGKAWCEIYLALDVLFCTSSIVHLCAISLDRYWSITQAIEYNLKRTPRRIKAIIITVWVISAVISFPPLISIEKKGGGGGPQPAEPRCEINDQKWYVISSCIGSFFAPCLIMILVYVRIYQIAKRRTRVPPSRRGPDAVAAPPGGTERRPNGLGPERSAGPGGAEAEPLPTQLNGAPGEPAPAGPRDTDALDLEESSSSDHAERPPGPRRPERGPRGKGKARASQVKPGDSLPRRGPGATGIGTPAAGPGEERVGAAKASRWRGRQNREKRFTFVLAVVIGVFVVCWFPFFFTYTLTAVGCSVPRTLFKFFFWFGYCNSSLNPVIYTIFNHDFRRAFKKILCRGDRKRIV

Assay [4] deals with T4, 348 GPCRs (Homo sapiens, UniProt Q9H1Y3).
T4 construct: expressed in transfected cells; host or cells: HEK293A
T4 sequence (Q9H1Y3 whole entry): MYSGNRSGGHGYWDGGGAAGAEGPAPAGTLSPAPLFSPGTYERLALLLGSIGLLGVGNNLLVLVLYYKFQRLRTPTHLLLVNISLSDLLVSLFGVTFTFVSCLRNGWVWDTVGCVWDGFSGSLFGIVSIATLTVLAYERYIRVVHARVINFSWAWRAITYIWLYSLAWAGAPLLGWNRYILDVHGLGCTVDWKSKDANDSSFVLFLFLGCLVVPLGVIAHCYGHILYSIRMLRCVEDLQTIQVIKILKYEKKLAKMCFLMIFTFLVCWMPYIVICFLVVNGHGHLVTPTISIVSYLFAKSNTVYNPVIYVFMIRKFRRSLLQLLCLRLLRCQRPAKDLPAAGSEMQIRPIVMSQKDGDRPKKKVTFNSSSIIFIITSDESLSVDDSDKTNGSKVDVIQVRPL
As to conditions: 10µM, Favipiravir 100μM.

Assay [5] concerns the target T5, 348 GPCRs (Homo sapiens, UniProt P37288).
T5 construct: expressed in transfected cells; host or cells: HEK293A

Assay [6] deals with T6, 348 GPCRs (Homo sapiens, UniProt P43088).
T6 construct: expressed in transfected cells; host or cells: HEK293A
T6 sequence (P43088 whole entry): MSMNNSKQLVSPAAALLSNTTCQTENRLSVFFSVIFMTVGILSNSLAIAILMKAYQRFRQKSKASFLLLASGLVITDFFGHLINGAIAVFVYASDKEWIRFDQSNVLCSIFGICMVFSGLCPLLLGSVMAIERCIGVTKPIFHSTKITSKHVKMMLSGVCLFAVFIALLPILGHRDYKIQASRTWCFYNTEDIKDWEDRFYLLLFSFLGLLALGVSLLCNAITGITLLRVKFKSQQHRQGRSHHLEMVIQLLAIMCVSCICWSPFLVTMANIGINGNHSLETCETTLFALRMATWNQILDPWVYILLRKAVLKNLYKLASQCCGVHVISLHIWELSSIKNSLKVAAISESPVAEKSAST
Particulars: 10µM, Favipiravir 100μM.

For assay [7], the target named is T7, 348 GPCRs (Homo sapiens, UniProt P32246).
T7 construct: expressed in transfected cells; host or cells: HEK293A
T7 sequence (P32246 1-355): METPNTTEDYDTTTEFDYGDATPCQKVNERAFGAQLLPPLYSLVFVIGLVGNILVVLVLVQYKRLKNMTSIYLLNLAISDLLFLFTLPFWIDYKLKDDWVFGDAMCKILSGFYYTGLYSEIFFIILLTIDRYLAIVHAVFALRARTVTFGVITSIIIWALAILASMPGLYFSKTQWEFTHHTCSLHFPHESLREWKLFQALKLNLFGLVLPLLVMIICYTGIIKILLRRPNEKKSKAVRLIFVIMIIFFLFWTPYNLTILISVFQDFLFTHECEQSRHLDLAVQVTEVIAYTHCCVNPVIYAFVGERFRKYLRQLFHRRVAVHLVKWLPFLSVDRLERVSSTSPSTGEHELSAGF
Particulars: 10µM, Favipiravir 100μM.

The target of assay [8] is T8, 348 GPCRs (Homo sapiens, UniProt P51684).
T8 construct: expressed in transfected cells; host or cells: HEK293A
T8 sequence (P51684 1-374): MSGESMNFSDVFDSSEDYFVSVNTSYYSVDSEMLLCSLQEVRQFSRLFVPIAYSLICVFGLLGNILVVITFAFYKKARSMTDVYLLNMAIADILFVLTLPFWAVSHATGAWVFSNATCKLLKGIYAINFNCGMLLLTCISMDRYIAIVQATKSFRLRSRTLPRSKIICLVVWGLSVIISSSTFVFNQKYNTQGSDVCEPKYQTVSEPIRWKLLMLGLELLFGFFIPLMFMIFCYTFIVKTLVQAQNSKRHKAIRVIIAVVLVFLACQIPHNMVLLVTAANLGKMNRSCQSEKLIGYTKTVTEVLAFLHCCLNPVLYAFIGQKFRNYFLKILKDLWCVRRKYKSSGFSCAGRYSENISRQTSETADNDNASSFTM
Particulars: 10µM, Favipiravir 100μM.

Assay [9] has as its target T9, 348 GPCRs (Homo sapiens, UniProt P28222).
T9 construct: expressed in transfected cells; host or cells: HEK293A
Particulars: 10µM, Favipiravir 100μM.

In assay [10] the target is T10, 348 GPCRs (Homo sapiens, UniProt P34972).
T10 construct: expressed in transfected cells; host or cells: HEK293A
T10 sequence (P34972 whole entry): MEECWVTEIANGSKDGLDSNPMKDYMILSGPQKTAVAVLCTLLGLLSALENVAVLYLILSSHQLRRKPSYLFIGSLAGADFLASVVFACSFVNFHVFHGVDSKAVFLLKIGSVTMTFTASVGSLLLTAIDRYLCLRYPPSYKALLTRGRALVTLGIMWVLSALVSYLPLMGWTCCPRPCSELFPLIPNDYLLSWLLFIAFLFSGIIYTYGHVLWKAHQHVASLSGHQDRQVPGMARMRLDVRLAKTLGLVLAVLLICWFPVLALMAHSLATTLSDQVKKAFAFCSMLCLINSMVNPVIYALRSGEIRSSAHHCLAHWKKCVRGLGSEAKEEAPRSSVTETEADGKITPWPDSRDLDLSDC
Particulars: 10µM, Favipiravir 100μM.

For assay [11], the target named is T11, 348 GPCRs (Homo sapiens, UniProt Q9GZP7).
T11 construct: expressed in transfected cells; host or cells: HEK293A
T11 sequence (Q9GZP7 1-353): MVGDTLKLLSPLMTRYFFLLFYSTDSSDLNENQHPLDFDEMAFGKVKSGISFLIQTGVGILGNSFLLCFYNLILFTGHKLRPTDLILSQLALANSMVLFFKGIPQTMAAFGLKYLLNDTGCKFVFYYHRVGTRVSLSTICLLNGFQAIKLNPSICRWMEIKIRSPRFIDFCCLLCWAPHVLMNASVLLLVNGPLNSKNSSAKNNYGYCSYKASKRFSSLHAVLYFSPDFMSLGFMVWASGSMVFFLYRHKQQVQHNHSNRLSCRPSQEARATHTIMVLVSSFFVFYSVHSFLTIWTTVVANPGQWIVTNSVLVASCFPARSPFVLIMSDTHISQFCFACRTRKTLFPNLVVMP

[12] abbreviates: MCHR2 (melanin concentrating hormone receptor 2), read-out: % GPCR activation compared to TPA.
[13] abbreviates: OXER1 (oxoeicosanoid receptor 1), read-out: % GPCR activation compared to TPA.
Where [14] appears, read: GPCR α2A (adrenoceptor alpha 2A), read-out: % GPCR activation compared to TPA.
Where [15] appears, read: OPN3 (opsin 3), read-out: % GPCR activation compared to TPA.
[16] abbreviates: GPCR V1A (arginine vasopressin receptor 1A), read-out: % GPCR activation compared to TPA.
Where [17] appears, read: FP (prostaglandin F receptor), read-out: % GPCR activation compared to TPA.
Setting [18] is: CCR1 (chemokine (C-C motif) receptor 1), read-out: % GPCR activation compared to TPA.
Where [19] appears, read: CCR6 (C-C motif chemokine receptor 6), read-out: % GPCR activation compared to TPA.
Setting [20] is: 5-HT1B (5-hydroxytryptamine receptor 1B), read-out: % GPCR activation compared to TPA.
Where [21] appears, read: CB2 (cannabinoid receptor 2), read-out: % GPCR activation compared to TPA.
[22] abbreviates: GPCR VN1R1 (vomeronasal 1 receptor), read-out: % GPCR activation compared to TPA.
Where [23] appears, read: read-out: % GPCR activation compared to TPA, MCHR2 (melanin concentrating hormone receptor 2).
Where [24] appears, read: read-out: % GPCR activation compared to TPA, OXER1 (oxoeicosanoid receptor 1).
Where [25] appears, read: read-out: % GPCR activation compared to TPA, GPCR α2A (adrenoceptor alpha 2A).
The mark [26] stands for this setting: read-out: % GPCR activation compared to TPA, OPN3 (opsin 3).
The mark [27] stands for this setting: read-out: % GPCR activation compared to TPA, GPCR V1A (arginine vasopressin receptor 1A).
Setting [28] is: read-out: % GPCR activation compared to TPA, FP (prostaglandin F receptor).
[29] abbreviates: read-out: % GPCR activation compared to TPA, CCR1 (chemokine (C-C motif) receptor 1).
Where [30] appears, read: read-out: % GPCR activation compared to TPA, CCR6 (C-C motif chemokine receptor 6).
The mark [31] stands for this setting: read-out: % GPCR activation compared to TPA, 5-HT1B (5-hydroxytryptamine receptor 1B).
[32] abbreviates: read-out: % GPCR activation compared to TPA, CB2 (cannabinoid receptor 2).
The mark [33] stands for this setting: read-out: % GPCR activation compared to TPA, GPCR VN1R1 (vomeronasal 1 receptor).

T1 sequence (Q969V1 whole entry): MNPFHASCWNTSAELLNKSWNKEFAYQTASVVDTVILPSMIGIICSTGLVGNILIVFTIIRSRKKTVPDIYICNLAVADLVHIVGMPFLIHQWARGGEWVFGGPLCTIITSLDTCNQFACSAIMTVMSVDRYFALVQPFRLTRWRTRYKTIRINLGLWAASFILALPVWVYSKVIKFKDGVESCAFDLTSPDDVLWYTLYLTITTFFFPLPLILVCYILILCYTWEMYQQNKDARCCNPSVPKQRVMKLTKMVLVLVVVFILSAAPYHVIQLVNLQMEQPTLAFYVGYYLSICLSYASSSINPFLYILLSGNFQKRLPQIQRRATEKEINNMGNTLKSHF
T5 sequence (P37288 whole entry): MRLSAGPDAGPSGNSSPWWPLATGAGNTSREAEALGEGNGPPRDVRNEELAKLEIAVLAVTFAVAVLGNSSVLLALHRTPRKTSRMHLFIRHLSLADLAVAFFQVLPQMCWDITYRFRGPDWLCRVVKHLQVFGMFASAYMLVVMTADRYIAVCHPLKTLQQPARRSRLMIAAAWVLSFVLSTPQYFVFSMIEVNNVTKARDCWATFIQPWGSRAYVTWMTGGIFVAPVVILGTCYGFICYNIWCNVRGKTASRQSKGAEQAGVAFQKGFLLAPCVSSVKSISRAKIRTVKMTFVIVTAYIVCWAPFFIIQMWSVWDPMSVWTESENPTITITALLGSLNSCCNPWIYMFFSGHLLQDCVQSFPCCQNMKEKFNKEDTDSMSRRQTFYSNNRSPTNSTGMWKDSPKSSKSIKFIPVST
T9 sequence (P28222 whole entry): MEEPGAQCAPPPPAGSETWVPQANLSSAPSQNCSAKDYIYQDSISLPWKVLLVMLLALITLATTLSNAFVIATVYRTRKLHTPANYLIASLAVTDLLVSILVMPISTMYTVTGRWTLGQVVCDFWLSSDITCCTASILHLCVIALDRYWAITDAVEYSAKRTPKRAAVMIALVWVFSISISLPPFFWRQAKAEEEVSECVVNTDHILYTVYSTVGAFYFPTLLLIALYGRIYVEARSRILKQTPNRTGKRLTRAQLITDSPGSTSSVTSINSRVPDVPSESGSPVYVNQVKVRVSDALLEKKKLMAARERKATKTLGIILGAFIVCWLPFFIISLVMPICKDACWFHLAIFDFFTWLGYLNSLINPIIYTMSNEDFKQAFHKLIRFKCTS

Regarding `CC(C)C(=O)OC[C@H]1O[C@@H](n2ccc(NO)nc2=O)[C@H](O)[C@@H]1O` [molnupiravir], the activation at 10 µM at 348 GPCRs [1] (setting [12]) is -3.92%; on 348 GPCRs [2] (setting [13]) it was -0.119%; at 348 GPCRs [3] (setting [14]), -0.00545%; at 348 GPCRs [5] (setting [16]), 0.0613%; on 348 GPCRs [6] (setting [17]), -0.35%; on 348 GPCRs [8] (setting [19]) it was -2.53%. Besides, on 348 GPCRs [11] (setting [22]), the activation at 10 µM is -1.19%. For the same compound, the activation at 100 µM at 348 GPCRs [4] (setting [15]) is -0.438%; on 348 GPCRs [7] (setting [18]), -1.8%; at 348 GPCRs [9] (setting [20]), -0.835%; at 348 GPCRs [10] (setting [21]), -1.91%.

For `CC(C)OC(=O)[C@H](C)N[P@](=O)(OC[C@H]1O[C@@H](n2ccc(=O)[nH]c2=O)[C@](C)(F)[C@@H]1O)Oc1ccccc1` [sofosbuvir], the activation at 10 µM on 348 GPCRs [1] (setting [23]) is -1.19%; on 348 GPCRs [2] (setting [24]) it was -1.86%; at 348 GPCRs [3] (setting [25]), -2.48%; on 348 GPCRs [5] (setting [27]), -0.512%; on 348 GPCRs [6] (setting [28]), -2.66%; at 348 GPCRs [8] (setting [30]), -3.43%. Also, the activation at 10 µM at 348 GPCRs [11] (setting [33]) is -0.898%. For the same compound, the activation at 100 µM was 0.266% on 348 GPCRs [4] (setting [26]), -1.9% at 348 GPCRs [7] (setting [29]), -1% on 348 GPCRs [9] (setting [31]) and -2.78% at 348 GPCRs [10] (setting [32]).

For the compound `N#C[C@@]1(c2ccc3c(N)ncnn23)O[C@H](CO)[C@@H](O)[C@H]1O` [GS441524], the activation at 10 µM was -0.458% on 348 GPCRs [1] (setting [12]); -0.233% on 348 GPCRs [2] (setting [13]); -0.949% on 348 GPCRs [3] (setting [14]); -0.48% on 348 GPCRs [5] (setting [16]); 0.154% at 348 GPCRs [6] (setting [17]); 0.67% on 348 GPCRs [8] (setting [19]). For the same compound, the activation at 10 µM at 348 GPCRs [11] (setting [22]) was determined as 2.87%. In addition, the activation at 100 µM on 348 GPCRs [4] (setting [15]) was -0.281%; on 348 GPCRs [7] (setting [18]) it was 4.02%; at 348 GPCRs [9] (setting [20]), -3.77%; at 348 GPCRs [10] (setting [21]), -0.772%.

For `NC(=O)c1nc(F)cnc1O` [favipiravir, 6-fluoro-3-hydroxy-2-pyrazinecarboxamide], the activation at 10 µM on 348 GPCRs [1] (setting [12]) is -2.23%; on 348 GPCRs [2] (setting [13]), 0.649%; at 348 GPCRs [6] (setting [17]), 0.208%; on 348 GPCRs [8] (setting [19]) it was 0.146%. Besides, the activation at 100 µM on 348 GPCRs [3] (GPCR α2A (adrenoceptor alpha 2A), 100μM, read-out: % GPCR activation compared to TPA) was 1.73%; on 348 GPCRs [4] (setting [15]), -0.343%; on 348 GPCRs [5] (GPCR V1A (arginine vasopressin receptor 1A), 100μM, read-out: % GPCR activation compared to TPA), 0.923%; at 348 GPCRs [7] (setting [18]), 5.15%; on 348 GPCRs [9] (setting [20]), -3.2%; on 348 GPCRs [10] (setting [21]) it was 1.24%. For the same compound, the activation at 100 µM at 348 GPCRs [11] (GPCR VN1R1 (vomeronasal 1 receptor), 100μM, read-out: % GPCR activation compared to TPA) was 1.77%.

`CCC(CC)COC(=O)[C@H](C)N[P@](=O)(OC[C@H]1O[C@@](C#N)(c2ccc3c(N)ncnn23)[C@H](O)[C@@H]1O)Oc1ccccc1` [remdesivir]: the activation at 10 µM at 348 GPCRs [1] (setting [23]) is -3.7%; on 348 GPCRs [2] (setting [24]), 2.06%; on 348 GPCRs [3] (setting [25]), 8.13%; on 348 GPCRs [5] (setting [27]), 0.24%; on 348 GPCRs [6] (setting [28]), 1.47%; on 348 GPCRs [8] (setting [30]), 2.34%. The activation at 10 µM on 348 GPCRs [11] (setting [33]) stood at 3.04%. Further, the activation at 100 µM at 348 GPCRs [4] (setting [26]) was -0.473%; on 348 GPCRs [7] (setting [29]), 2.29%; at 348 GPCRs [9] (setting [31]) it was -0.255%; on 348 GPCRs [10] (setting [32]) it was -0.086%.
